One may read the IC50 as the concentration needed to halve the response being measured.

This test addresses T1, human PDE5 (Homo sapiens, UniProt O76074).
T1 construct: from tissue; host or cells: platelets from fresh blood of human donors (lysate, 10,000 g supernatant)
The test can be described thus: Inhibition of the type 5 phosphodiesterase (PDE5) activity, modified SPA test with platelet lysate. In kind it is biochemical. Conditions: PDE5 from human platelet lysate, 0.5 μM cGMP. A digest of the protocol: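 SPA-based cGMP hydrolysis, [3H]cGMP tracer in 0.5 μM cGMP, by sonicated human platelet lysate; motapizone (1 μM) and a PDE2 inhibitor (10 nM) block other PDEs. Reaction 15 min at 37 °C after 5 min preincubation, quenched with beads containing IBMX. IC50 from concentration-effect curves.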
In turn, `C[C@H](O)C(=O)N[C@H]1CC[C@@H](NC(=O)c2c[nH]c3c(-c4ccc(F)cc4OCC4CC4)ncnc23)CC1` [Example 215, cis-4-(2-Cyclopropylmethoxy-4-fluoro-phenyl)-5H-pyrrolo[3,2-d]pyrimidine-7-carboxylic acid [4-((S)-2-hydroxy-propionylamino)-cyclohexyl]-amide] showed an IC50 of 2.57 nM.
For `COCC(=O)N1CCC[C@H](NC(=O)c2c[nH]c3c(-c4cc(F)c(OC)cc4OCC4CC4)ncnc23)C1` [Example 115, 4-(2-Cyclopropylmethoxy-5-fluoro-4-methoxy-phenyl)-5H-pyrrolo[3,2-d]pyrimidine-7-carboxylic acid [(S)-1-(2-methoxy-ethanoyl)-piperidin-3-yl]amide] the value was 3.8 nM; for `CCCCOc1ccc2c(c1-c1ncnc3c(C(=O)NC4CCN(C(=O)OCC)CC4)c[nH]c13)OCO2` [Example 145, 4-{[4-(5-Butoxy-benzo[1,3]dioxol-4-yl)-5H-pyrrolo[3,2-d]pyrimidine-7-carbonyl]-amino}-piperidine-1-carboxylic acid ethyl ester], 0.1 nM.
As to `COc1cc(OCC2CC2)c(-c2ncnc3c(C(=O)N[C@@H]4CCN(C(=O)[C@H](C)O)C4)c[nH]c23)cc1F` [Example 242, 4-(2-Cyclopropylmethoxy-5-fluoro-4-methoxy-phenyl)-5H-pyrrolo[3,2-d]pyrimidine-7-carboxylic acid [(R)-1-((S)-2-hydroxy-propionyl)pyrrolidin-3-yl]-amide], inhibition was half-maximal at 0.977 nM (IC50).
`CCOC(=O)N1CCC(NC(=O)c2c[nH]c3c(-c4c(OCC5CCC5)ccc5c4OCO5)ncnc23)CC1` [Example 132, 4-({1-[4-(5-Cyclobutylmethoxy-benzo[1,3]dioxol-4-yl)-5H-pyrrolo[3,2-d]pyrimidin-7-yl]-methanoyl}-amino)-piperidine-1-carboxylic acid ethyl ester] gave an IC50 of 0.295 nM.
As for `CCC(=O)N1CCC(NC(=O)c2c[nH]c3c(-c4cc(OC)c(F)cc4OCC4CC4)ncnc23)CC1` [Example 97, 4-(2-Cyclopropylmethoxy-4-fluoro-5-methoxy-phenyl)-5H-pyrrolo[3,2-d]pyrimidine-7-carboxylic acid (1-propionyl-piperidin-4-yl)-amide], the figure is 0.117 nM; as for `COCC(=O)N1CCC(NC(=O)c2c[nH]c3c(-c4cc(OC)ccc4OCC4CC4)ncnc23)CC1` [Example 73, 4-(2-Cyclopropylmethoxy-5-methoxy-phenyl)-5H-pyrrolo[3,2-d]pyrimidine-7-carboxylic acid [1-(2-methoxy-acetyl)piperidin-4-yl]-amide], 1.86 nM.
`COCCOc1ccc2c(c1-c1ncnc3c(C(=O)N[C@H]4CC[C@H](NC(=O)C5CC5)CC4)c[nH]c13)OCO2` [Example 162, trans-4-[5-(2-Methoxy-ethoxy)-benzo[1,3]dioxol-4-yl]-5H-pyrrolo[3,2-d]pyrimidine-7-carboxylic acid (4-(cyclopropanecarbonyl-amino)-cyclohexyl]-amide] showed an IC50 of 11 nM.
In turn, `CC(=O)N[C@H]1CC[C@H](NC(=O)c2c[nH]c3c(-c4cc(C)ccc4OCC4CC4)ncnc23)CC1` [Example 120, trans-4-(2-Cyclopropylmethoxy-5-methyl-phenyl)-5H-pyrrolo[3,2-d]pyrimidine-7-carboxylic acid (4-acetylamino-cyclohexyl)-amide] showed an IC50 of 1.2 nM.
Compound `C[C@H](O)C(=O)N[C@H]1CC[C@H](NC(=O)c2c[nH]c3c(-c4ccc(F)cc4OCC4CC4)ncnc23)CC1` [Example 218, trans-4-(2-Cyclopropylmethoxy-4-fluoro-phenyl)-5H-pyrrolo[3,2-d]pyrimidine-7-carboxylic acid [4-((S)-2-hydroxy-propionylamino)-cyclohexyl]-amide] showed an IC50 of 2.51 nM.
As for `C[C@H](O)C(=O)N1CCC(NC(=O)c2c[nH]c3c(-c4cc(F)c(OC(F)F)cc4OCC4CC4)ncnc23)CC1` [Example 284, 4-[2-Cyclopropylmethoxy-4-(1,1-difluoro-methoxy)-5-fluoro-phenyl]-5H-pyrrolo[3,2-d]pyrimidine-7-carboxylic acid [1-((S)-2-hydroxy-propionyl)-piperidin-4-yl]-amide], the figure is 2.88 nM; as for `CCC(=O)N1CC[C@@H](NC(=O)c2c[nH]c3c(-c4cc(OC)c(F)cc4OCC4CC4)ncnc23)C1` [Example 104, 4-(2-Cyclopropylmethoxy-4-fluoro-5-methoxy-phenyl)-5H-pyrrolo[3,2-d]pyrimidine-7-carboxylic acid ((R)-1-propionyl-pyrrolidin-3-yl)-amide], 0.234 nM.
`CCOc1ccc2c(c1-c1ncnc3c(C(=O)NC4CCN(C(=O)CC)CC4)c[nH]c13)OCO2` [Example 133, 4-(5-Ethoxy-benzo[1,3]dioxol-4-yl)-5H-pyrrolo[3,2-d]pyrimidine-7-carboxylic acid (1-propionyl-piperidin-4-yl)-amide] had an IC50 of 0.631 nM.
Compound `COc1cc(OCC2CC2)c(-c2ncnc3c(C(=O)NC4CCN(C(C)=O)CC4)c[nH]c23)cc1F` [Example 108, 4-(2-Cyclopropylmethoxy-5-fluoro-4-methoxy-phenyl)-5H-pyrrolo[3,2-d]pyrimidine-7-carboxylic acid (1-acetyl-piperidin-4-yl)-amide] gave an IC50 of 0.661 nM.
`CCOC(=O)N[C@H]1CC[C@H](NC(=O)c2c[nH]c3c(-c4cc(C)ccc4OCC4CC4)ncnc23)CC1` [Example 122, trans-(4-{[4-(2-Cyclopropylmethoxy-5-methyl-phenyl)-5H-pyrrolo[3,2-d]pyrimidine-7-carbonyl]-amino}-cyclohexyl)-carbamic acid ethyl ester] showed an IC50 of 1.38 nM.
For `CCCCOc1ccc2c(c1-c1ncnc3c(C(=O)NC4CCCN(C(=O)CC)C4)c[nH]c13)OCO2` (centres unmarked) [Example 147, 4-(5-Butoxy-benzo[1,3]dioxol-4-yl)-5H-pyrrolo[3,2-d]pyrimidine-7-carboxylic acid (1-propionyl-piperidin-3-yl)-amide] the value was 0.24 nM.
Compound `COCCOc1ccc2c(c1-c1ncnc3c(C(=O)NC4CCN(C(=O)[C@H](C)O)CC4)c[nH]c13)OCO2` [Example 263, 4-[5-(2-Methoxy-ethoxy)-benzo[1,3]dioxol-4-yl]-5H-pyrrolo[3,2-d]pyrimidine-7-carboxylic acid [1-((S)-2-hydroxy-propionyl)piperidin-4-yl]-amide] gave an IC50 of 10 nM.
As for `CCOC(=O)N[C@H]1CC[C@H](NC(=O)c2c[nH]c3c(-c4c(OCC5CC5)ccc5c4OCO5)ncnc23)CC1` [Example 6, trans-[4-({1-[4-(5-Cyclopropylmethoxy-benzo[1,3]dioxol-4-yl)-5H-pyrrolo[3,2-d]pyrimidin-7-yl]-methanoyl}-amino)-cyclohexyl]-carbamic acid ethyl ester], the figure is 0.0851 nM.
Regarding `COc1ccc(-c2ncnc3c(C(=O)N[C@H]4CC[C@H](NC(=O)C5(O)CC5)CC4)c[nH]c23)c(OCC2CC2)c1` [Example 201, trans-4-(2-Cyclopropylmethoxy-4-methoxy-phenyl)-5H-pyrrolo[3,2-d]pyrimidine-7-carboxylic acid {4-[(1-hydroxy-cyclopropanecarbonyl)-amino]-cyclohexyl}-amide], the IC50 was 0.407 nM.
In the case of `COCC(=O)N[C@H]1CC[C@H](NC(=O)c2c[nH]c3c(-c4cc(F)c(OC)cc4OCC4CC4)ncnc23)CC1` [Example 107, trans-4-(2-Cyclopropylmethoxy-5-fluoro-4-methoxy-phenyl)-5H-pyrrolo[3,2-d]pyrimidine-7-carboxylic acid [4-(2-methoxy-acetylamino)-cyclohexyl]-amide], half-maximal inhibition (IC50) was put at 0.537 nM.
As for `CCCOc1ccc2c(c1-c1ncnc3c(C(=O)N[C@@H]4CCN(C(=O)CC)C4)c[nH]c13)OCO2` [Example 141, 4-(5-Propoxy-benzo[1,3]dioxol-4-yl)-5H-pyrrolo[3,2-d]pyrimidine-7-carboxylic acid ((R)-1-propionyl-pyrrolidin-3-yl)-amide], the figure is 0.933 nM; as for `COc1ccc(OCC2CC2)c(-c2ncnc3c(C(=O)N[C@H]4CC[C@@H](NC(=O)C5CC5)CC4)c[nH]c23)c1` [Example 68, cis-4-(2-Cyclopropylmethoxy-5-methoxy-phenyl)-5H-pyrrolo[3,2-d]pyrimidine-7-carboxylic acid [4-(cyclopropanecarbonyl-amino)cyclohexyl]-amide], 0.912 nM.
As for `O=C(N[C@H]1CC[C@H](NC(=O)C2(O)CC2)CC1)c1c[nH]c2c(-c3ccccc3OCC3CC3)ncnc12` [Example 226, trans-4-(2-Cyclopropylmethoxy-phenyl)-5H-pyrrolo[3,2-d]pyrimidine-7-carboxylic acid {4-[(1-hydroxy-cyclopropanecarbonyl)-amino]-cyclohexyl}-amide], the figure is 3.39 nM; as for `Cc1ccc(OCC2CC2)c(-c2ncnc3c(C(=O)N[C@H]4CC[C@H](NC(=O)C5(O)CC5)CC4)c[nH]c23)c1` [Example 245, trans-4-(2-Cyclopropylmethoxy-5-methyl-phenyl)-5H-pyrrolo[3,2-d]pyrimidine-7-carboxylic acid {4-[(1-hydroxy-cyclopropanecarbonyl)-amino]-cyclohexyl}-amide], 1.15 nM; as for `COCC(=O)N1CCC(NC(=O)c2c[nH]c3c(-c4cc(F)c(OC(F)F)cc4OCC4CC4)ncnc23)CC1` [Example 280, 4-[2-Cyclopropylmethoxy-4-(1,1-difluoro-methoxy)-5-fluoro-phenyl]-5H-pyrrolo[3,2-d]pyrimidine-7-carboxylic acid [1-(2-methoxy-ethanoyl)-piperidin-4-yl]amide], 1.74 nM.
For `COCC(=O)N[C@H]1CC[C@H](NC(=O)c2c[nH]c3c(-c4ccc(F)cc4OCC4CC4)ncnc23)CC1` [Example 79, trans-4-(2-Cyclopropylmethoxy-4-fluoro-phenyl)-5H-pyrrolo[3,2-d]pyrimidine-7-carboxylic acid [4-(2-methoxy-acetylamino)-cyclohexyl]-amide] the value was 1.55 nM.

The record behind these values is patent publication US8445501B2, “Substituted 7-carboxamido-pyrrolo[3,2-d]pyrimidines” (Takeda GmbH, priority 2008, dated 2013).
